Results: patent US5135943A, “1H-imidazole derivative compounds and pharmaceutical compositions containing the same” (priority 1984, dated 1992)
Values after ≈ are worked out from the molar mass of the structure shown. Where two headings read alike, the source gives them in different places.

Experiments:
Candida tropicalis = assay: MIC by two-fold dilution, Candida tropicalis; format: cell-based; conditions: 10 strains, read-out: Minimum Inhibitory Concentration
Method: (§1) Minimum Inhibitory Concentrations (MICS) of Sertaconazole and Miconazole against 107 yeasts, 47 dermatophytes and 4 fungi were determined by a two-fold dilution method.

Candida albicans = assay: Vaginal infection by Candida albicans in female mice; format: in vivo; conditions: seven days after infection
Description: Besides the above in vivo experiments vaginal infection by Candida albicans was studied in female mice. Standard methods were used. […] Similar results were found in experiments where repeated dosages of active compound were used after infection. These in vivo results confirmed the surprising speed of action of Sertaconazole in comparison to the prior art compounds.

Torulopsis glabrata = assay: MIC by two-fold dilution, Torulopsis glabrata; format: cell-based; conditions: Nakaseomyces glabratus; 10 strains; read-out: Minimum Inhibitory Concentration
Method: as §1

C. pseudotropicalis 21 = assay: MIC, comparative in vitro testing against Martin compounds; format: cell-based; conditions: Sabouraud medium
Method: (§2) Minimum Inhibitory Concentrations (MICS) of Sertaconazole were also measured in comparison to four of the compounds described in the Martin Patent, including a compound, referred to herein as Martin Compound 1, which has the same structure as Sertaconazole, expect that the sulfur in the benzothiophene ring is replaced by an oxygen.
(§3) The results of comparative in vitro testing of Sertaconazole and these four Martin compounds are shown in the following Table II against 16 microorganisms. The reading time is the time interval from the time of inoculation to the time of measurement.

C. parapsilosis 19 = assay: as above; format: cell-based
Method: as §2, §3

C. tropicalis 25 = assay: as above; format: cell-based; conditions: YNB medium
Method: as §2, §3

C. albicans 15 = assay: as above; format: cell-based; conditions: Casitone medium
Method: as §2, §3

C. guillermondii = assay: as above; format: cell-based
Method: as §2, §3

C. albicans 31 = assay: as above; format: cell-based; conditions: YNB medium
Method: as §2, §3

C. krusei 24 = assay: as above; format: cell-based
Method: as §2, §3

C. albicans 32 = assay: as above; format: cell-based; conditions: YNB medium
Method: as §2, §3

C. albicans 14 = assay: as above; format: cell-based; conditions: Casitone medium
Method: as §2, §3

C. albicans ATCC E-10231 = assay: as above; format: cell-based; conditions: Casitone medium
Method: as §2, §3

C. stellatoidea 36232 = assay: as above; format: cell-based
Method: as §2, §3

[1] = system: Trichophyton menta-grophytes; assay: MIC by two-fold dilution, Trichophyton mentagrophytes; format: cell-based; conditions: 30 strains, read-out: Minimum Inhibitory Concentration
Method: as §1

16 microorganisms = assay: Geometric mean of all MIC measurements, comparative in vitro testing; format: cell-based; conditions: for MIC: read-out: Geometric means of MIC
Method: as §2, §3

Clc1ccc(C(Cn2ccnc2)OCc2csc3c(Cl)cccc23)c(Cl)c1 (stereo not shown) [Sertaconazole]
MIC (Candida tropicalis): 5.6 µg/mL (≈ 12.8 µM) | animals healed (Candida albicans): 75% | MIC (Torulopsis glabrata): 1.5 µg/mL (≈ 3.43 µM) | MIC (C. pseudotropicalis 21; Kluyveromyces marxianus, 21, reading time 48 h, SZ vs M2, read-out: MIC): 0.03 µg/mL (≈ 0.0685 µM) | MIC (C. pseudotropicalis 21; Kluyveromyces marxianus, 21, reading time 60 h, SZ vs M1, read-out: MIC): 0.03 µg/mL (≈ 0.0685 µM) | MIC (C. pseudotropicalis 21; reading time 48 h, SZ vs M3): 0.03 µg/mL (≈ 0.0685 µM) | MIC (C. pseudotropicalis 21; reading time 48 h, SZ vs M4): 0.03 µg/mL (≈ 0.0685 µM) | MIC (C. parapsilosis 19; 19, 48 h, Sabouraud medium, reading time 48 h, SZ vs M2): 0.25 µg/mL (≈ 0.571 µM) | MIC (C. parapsilosis 19; 19, 48 h, Sabouraud medium, reading time 48 h, SZ vs M3): 0.25 µg/mL (≈ 0.571 µM) | MIC (C. parapsilosis 19; 19, 48 h, Sabouraud medium, reading time 48 h, SZ vs M4): 0.25 µg/mL (≈ 0.571 µM) | MIC (C. parapsilosis 19; 19, 48 h, YNB medium, reading time 48 h, SZ vs M2): 0.25 µg/mL (≈ 0.571 µM) | MIC (C. parapsilosis 19; 19, 48 h, YNB medium, reading time 48 h, SZ vs M3): 0.5 µg/mL (≈ 1.14 µM) | MIC (C. parapsilosis 19; 19, 48 h, YNB medium, reading time 48 h, SZ vs M4): 0.5 µg/mL (≈ 1.14 µM) | MIC (C. parapsilosis 19; 19, 60 h, Sabouraud medium, reading time 60 h, SZ vs M1): 1 µg/mL (≈ 2.28 µM) | MIC (C. parapsilosis 19; 19, 60 h, YNB medium, reading time 60 h, SZ vs M1): 0.5 µg/mL (≈ 1.14 µM) | MIC (C. tropicalis 25; Candida tropicalis, 25, 48 h, reading time 48 h, SZ vs M2): 8 µg/mL (≈ 18.3 µM) | MIC (C. tropicalis 25; Candida tropicalis, 25, 48 h, reading time 48 h, SZ vs M3): 4 µg/mL (≈ 9.14 µM) | MIC (C. tropicalis 25; Candida tropicalis, 25, 48 h, reading time 48 h, SZ vs M4): 4 µg/mL (≈ 9.14 µM) | MIC (C. tropicalis 25; Candida tropicalis, 25, 60 h, reading time 60 h, SZ vs M1): 8 µg/mL (≈ 18.3 µM) | MIC (C. albicans 15; Candida albicans, 15, 48 h, reading time 48 h, SZ vs M2): 0.06 µg/mL (≈ 0.137 µM) | MIC (C. albicans 15; Candida albicans, 15, 48 h, reading time 48 h, SZ vs M3): 0.03 µg/mL (≈ 0.0685 µM) | MIC (C. albicans 15; Candida albicans, 15, 48 h, reading time 48 h, SZ vs M4): 0.03 µg/mL (≈ 0.0685 µM) | MIC (C. albicans 15; Candida albicans, 15, 60 h, reading time 60 h, SZ vs M1): 0.5 µg/mL (≈ 1.14 µM) | MIC (C. guillermondii; 48 h): 0.125 µg/mL (≈ 0.286 µM) | MIC (C. guillermondii; 48 h, Casitone medium, reading time 48 h, SZ vs M2, read-out: MIC): 0.25 µg/mL (≈ 0.571 µM) | MIC (C. guillermondii; 48 h, Casitone medium, reading time 48 h, SZ vs M3, read-out: MIC): 0.25 µg/mL (≈ 0.571 µM) | MIC (C. guillermondii; 48 h, Casitone medium, reading time 48 h, SZ vs M4, read-out: MIC): 0.25 µg/mL (≈ 0.571 µM) | MIC (C. guillermondii; 48 h, YNB medium, reading time 48 h, SZ vs M2, read-out: MIC): 0.25 µg/mL (≈ 0.571 µM) | MIC (C. guillermondii; 60 h, Casitone medium, reading time 60 h, SZ vs M1, read-out: MIC): 0.5 µg/mL (≈ 1.14 µM) | MIC (C. guillermondii; 60 h, YNB medium, reading time 60 h, SZ vs M1, read-out: MIC): 0.25 µg/mL (≈ 0.571 µM) | MIC (C. guillermondii; YNB medium, reading time 48 h, SZ vs M4): 0.125 µg/mL (≈ 0.286 µM) | MIC (C. albicans 31; Candida albicans, 31, reading time 48 h, SZ vs M2, read-out: MIC): 4 µg/mL (≈ 9.14 µM) | MIC (C. albicans 31; Candida albicans, 31, reading time 60 h, SZ vs M1, read-out: MIC): 8 µg/mL (≈ 18.3 µM) | MIC (C. albicans 31; reading time 48 h, SZ vs M3): 4 µg/mL (≈ 9.14 µM) | MIC (C. albicans 31; reading time 48 h, SZ vs M4): 4 µg/mL (≈ 9.14 µM) | MIC (C. krusei 24; Casitone medium, reading time 48 h, SZ vs M4): 0.125 µg/mL (≈ 0.286 µM) | MIC (C. krusei 24; Pichia kudriavzevii, 24, 48 h): 0.125 µg/mL (≈ 0.286 µM) | MIC (C. krusei 24; Pichia kudriavzevii, 24, 48 h, Casitone medium, reading time 48 h, SZ vs M2, read-out: MIC): 0.25 µg/mL (≈ 0.571 µM) | MIC (C. krusei 24; Pichia kudriavzevii, 24, 48 h, YNB medium, reading time 48 h, SZ vs M2, read-out: MIC): 0.25 µg/mL (≈ 0.571 µM) | MIC (C. krusei 24; Pichia kudriavzevii, 24, 48 h, YNB medium, reading time 48 h, SZ vs M3, read-out: MIC): 0.25 µg/mL (≈ 0.571 µM) | MIC (C. krusei 24; Pichia kudriavzevii, 24, 48 h, YNB medium, reading time 48 h, SZ vs M4, read-out: MIC): 0.25 µg/mL (≈ 0.571 µM) | MIC (C. krusei 24; Pichia kudriavzevii, 24, 60 h, Casitone medium, reading time 60 h, SZ vs M1, read-out: MIC): 1 µg/mL (≈ 2.28 µM) | MIC (C. krusei 24; Pichia kudriavzevii, 24, 60 h, YNB medium, reading time 60 h, SZ vs M1, read-out: MIC): 0.25 µg/mL (≈ 0.571 µM) | MIC (C. albicans 32; Candida albicans, 32, reading time 48 h, SZ vs M2, read-out: MIC): 4 µg/mL (≈ 9.14 µM) | MIC (C. albicans 32; Candida albicans, 32, reading time 60 h, SZ vs M1, read-out: MIC): 8 µg/mL (≈ 18.3 µM) | MIC (C. albicans 32; reading time 48 h, SZ vs M3): 4 µg/mL (≈ 9.14 µM) | MIC (C. albicans 32; reading time 48 h, SZ vs M4): 4 µg/mL (≈ 9.14 µM) | MIC (C. albicans 14; Candida albicans, 14, 48 h, reading time 48 h, SZ vs M2): 0.25 µg/mL (≈ 0.571 µM) | MIC (C. albicans 14; Candida albicans, 14, 48 h, reading time 48 h, SZ vs M3): 0.5 µg/mL (≈ 1.14 µM) | MIC (C. albicans 14; Candida albicans, 14, 48 h, reading time 48 h, SZ vs M4): 0.5 µg/mL (≈ 1.14 µM) | MIC (C. albicans 14; Candida albicans, 14, 60 h, reading time 60 h, SZ vs M1): 1 µg/mL (≈ 2.28 µM) | MIC (C. albicans ATCC E-10231; Candida albicans, ATCCE10231, reading time 48 h, SZ vs M2, read-out: MIC): 0.5 µg/mL (≈ 1.14 µM) | MIC (C. albicans ATCC E-10231; Candida albicans, ATCCE10231, reading time 60 h, SZ vs M1, read-out: MIC): 1 µg/mL (≈ 2.28 µM) | MIC (C. albicans ATCC E-10231; reading time 48 h, SZ vs M3): 0.5 µg/mL (≈ 1.14 µM) | MIC (C. albicans ATCC E-10231; reading time 48 h, SZ vs M4): 0.5 µg/mL (≈ 1.14 µM) | MIC (C. stellatoidea 36232; Candida albicans, 36232, 48 h, Casitone medium, reading time 48 h, SZ vs M2): 0.06 µg/mL (≈ 0.137 µM) | MIC (C. stellatoidea 36232; Candida albicans, 36232, 48 h, Casitone medium, reading time 48 h, SZ vs M3): 0.06 µg/mL (≈ 0.137 µM) | MIC (C. stellatoidea 36232; Candida albicans, 36232, 48 h, Casitone medium, reading time 48 h, SZ vs M4): 0.06 µg/mL (≈ 0.137 µM) | MIC (C. stellatoidea 36232; Candida albicans, 36232, 48 h, Sabouraud medium, reading time 48 h, SZ vs M2): 0.25 µg/mL (≈ 0.571 µM) | MIC (C. stellatoidea 36232; Candida albicans, 36232, 48 h, Sabouraud medium, reading time 48 h, SZ vs M3): 0.5 µg/mL (≈ 1.14 µM) | MIC (C. stellatoidea 36232; Candida albicans, 36232, 48 h, Sabouraud medium, reading time 48 h, SZ vs M4): 0.5 µg/mL (≈ 1.14 µM) | MIC (C. stellatoidea 36232; Candida albicans, 36232, 48 h, YNB medium, reading time 48 h, SZ vs M2): 1 µg/mL (≈ 2.28 µM) | MIC (C. stellatoidea 36232; Candida albicans, 36232, 48 h, YNB medium, reading time 48 h, SZ vs M3): 0.5 µg/mL (≈ 1.14 µM) | MIC (C. stellatoidea 36232; Candida albicans, 36232, 48 h, YNB medium, reading time 48 h, SZ vs M4): 0.5 µg/mL (≈ 1.14 µM) | MIC (C. stellatoidea 36232; Candida albicans, 36232, 60 h, Casitone medium, reading time 60 h, SZ vs M1): 0.25 µg/mL (≈ 0.571 µM) | MIC (C. stellatoidea 36232; Candida albicans, 36232, 60 h, Sabouraud medium, reading time 60 h, SZ vs M1): 1 µg/mL (≈ 2.28 µM) | MIC (C. stellatoidea 36232; Candida albicans, 36232, 60 h, YNB medium, reading time 60 h, SZ vs M1): 4 µg/mL (≈ 9.14 µM) | MIC [1]: 2.6 µg/mL (≈ 5.94 µM) | MIC (16 microorganisms; 48 h, SZ vs M2, reading time 48 h): 0.366 µg/mL (≈ 0.836 µM) | MIC (16 microorganisms; 48 h, SZ vs M3, reading time 48 h): 0.336 µg/mL (≈ 0.768 µM) | MIC (16 microorganisms; 48 h, SZ vs M4, reading time 48 h): 0.336 µg/mL (≈ 0.768 µM) | MIC (16 microorganisms; 60 h, SZ vs M1, reading time 60 h): 0.876 µg/mL (≈ 2 µM) | Increase of Sertaconazole activity (16 microorganisms; relative to Martin Compound 1): 24% | Increase of Sertaconazole activity (16 microorganisms; relative to Martin Compound 2): 54% | Increase of Sertaconazole activity (16 microorganisms; relative to Martin Compound 3): 16% | Increase of Sertaconazole activity (16 microorganisms; relative to Martin Compound 4): 54%
